Patent US11872324B2, “Materials and methods for tissue regeneration” (The University Court of the University of Glasgow, priority 2015, dated 2024)
Values belong to the molecule of their own block, whether it stands above or below them.

What was measured:
[1] = test system: Murine embryonic mesenchymal stem cells (mMSCs) C3H10T1/2; assay: Inhibition of contractility in mMSCs; assay type: cell-based; details: for osteogenic marker expression: mMSCs on all substrates, 20 μM inhibitor; for Staining for pMLC / expression of stemness markers (Sca1, CD29): mMSCs; for Staining for pMLC: 10 and 20 μM inhibitor; for expression of stemness markers (Sca1, CD29): 15 days, basal conditions with inhibitor
[2] = target: VEGFR-2 (Homo sapiens, UniProt P35968)
Protocol: The most direct way to look at VEGF effect on downstream signaling was to assess its receptor phosphorylation. An immunofluorescence test for presence of phosphorylated VEGFR-2 was performed on standard HUVEC culture on tissue plastics, when cells were stimulated with 25 ng/ml of VEGF for two different time periods (2 min and 30 min). […] Therefore it was decided to assay phosphorylation of one of the downstream effectors, ERK1/2 which is activated via MAPK branch of GF receptor signaling.

[3] = test system: ERK1/2; assay: ERK1/2 phosphorylation ELISA in HUVEC; assay type: cell-based, human; details: 30 min
Protocol: VEGF bound to substrates was assayed indirectly by measuring remaining VEGF in coating solution with a sandwich ELISA kit according to the manufacturer's instructions (DuoSetDY293B, R&D Systems). Levels of phosphorylation of ERK1/2 in HUVECs seeded onto functionalized surfaces were assessed after 30 min incubation using DuoSet ELISA kit following the manufacturer's instructions (DuoSetDYC1018B, R&D Systems). Human umbilical vein endothelial cells (HUVEC) (Cellworks) were maintained in HLVEC complete media (Cellworks). For any experiment, cells with not higher than 10 population doublings were used (usually corresponding up to P5). For network formation experiments, cell seeding density was optimized, and cells were eventually seeded at 10,000 cells/cm^2. Seeding was done on protein-functionalized and control polymer-coated substrates, and cells were left to adhere in a CO2 incubator at 37° C. After 16 h, medium was removed and replaced with fibrinogen solution (20 mg/ml) in HLVEC complete media, containing also 50 U/ml of thrombin and 1.2 mg/ml of aprotinin; to allow complete fibrinogen clotting, samples were placed in CO2 incubator for 1 h. After clotting, fibrin matrix was covered with 0.5 ml HLVEC complete media with 25 ng/ml of VEGF where required, and samples were kept at 37° C. for 6 day period, with media changed every second day.

[4] = test system: Human bone marrow mesenchymal stem cells (hMSCs); assay: Alkaline phosphatase staining of hMSCs; assay type: cell-based; details: 28 days, noggin 50 ng/ml
Protocol: Human bone marrow mesenchymal stem cells (hMSCs) from Promocell were maintained in basal media (αMEM, 10% FBS, 1% P/S, 1% fungizone, 2 mM L-glutamine, 1 ng/ml FGF-2) at 37° C. with 5% CO2. Cells were seeded onto the materials at 10^4 cells/cm2 using seeding media (DMEM high glucose, 1% P/S, 1% FBS,) and media were changed twice a week. For all cultures the first 2 hours (initial cell adhesion) were in absence of serum and GF. Cells were used at passages P0-P3. Each experiment was performed in triplicate.
Cells were cultured on materials for 28 days. Noggin (50 ng/ml) was added in a set of samples and phosphate deposition was analysed by an Alkaline Phosphatase assay (Sigma, 86C-1KT). Cells were fixed with the fixative solution (citrate-acetone-formaldehide solution) at RT for 30 s. Afterwards, samples were stained with the alkaline-dye mixture and incubated at RT in darkness for 15 min. Samples were counterstained for 2 minutes with neutral red solution and rinsed in tap water.

[5] = target: Fibronectin (FN) from human plasma adsorbed on poly(ethyl acrylate) (PEA), organised into a fibrillar (nano)network (human) (UniProt P02751); assay: sandwich ELISA of BMP-2 released from FN-coated surfaces
[6] = target: Fibronectin (FN) from human plasma adsorbed on poly(ethyl acrylate) (PEA), organised into a fibrillar (nano)network (human) (UniProt P02751); assay: ELISA; BMP-2 adsorbed on FN-coated polymer implant tubes
[7] = target: Fibronectin (FN) from human plasma adsorbed on poly(ethyl acrylate) (PEA), organised into a fibrillar (nano)network (human) (UniProt P02751); assay: ELISA; BMP-2 adsorbed from 5 µg/ml on FN-coated polymer implant tubes

Chain of VEGFR-2 (P35968 20-1356): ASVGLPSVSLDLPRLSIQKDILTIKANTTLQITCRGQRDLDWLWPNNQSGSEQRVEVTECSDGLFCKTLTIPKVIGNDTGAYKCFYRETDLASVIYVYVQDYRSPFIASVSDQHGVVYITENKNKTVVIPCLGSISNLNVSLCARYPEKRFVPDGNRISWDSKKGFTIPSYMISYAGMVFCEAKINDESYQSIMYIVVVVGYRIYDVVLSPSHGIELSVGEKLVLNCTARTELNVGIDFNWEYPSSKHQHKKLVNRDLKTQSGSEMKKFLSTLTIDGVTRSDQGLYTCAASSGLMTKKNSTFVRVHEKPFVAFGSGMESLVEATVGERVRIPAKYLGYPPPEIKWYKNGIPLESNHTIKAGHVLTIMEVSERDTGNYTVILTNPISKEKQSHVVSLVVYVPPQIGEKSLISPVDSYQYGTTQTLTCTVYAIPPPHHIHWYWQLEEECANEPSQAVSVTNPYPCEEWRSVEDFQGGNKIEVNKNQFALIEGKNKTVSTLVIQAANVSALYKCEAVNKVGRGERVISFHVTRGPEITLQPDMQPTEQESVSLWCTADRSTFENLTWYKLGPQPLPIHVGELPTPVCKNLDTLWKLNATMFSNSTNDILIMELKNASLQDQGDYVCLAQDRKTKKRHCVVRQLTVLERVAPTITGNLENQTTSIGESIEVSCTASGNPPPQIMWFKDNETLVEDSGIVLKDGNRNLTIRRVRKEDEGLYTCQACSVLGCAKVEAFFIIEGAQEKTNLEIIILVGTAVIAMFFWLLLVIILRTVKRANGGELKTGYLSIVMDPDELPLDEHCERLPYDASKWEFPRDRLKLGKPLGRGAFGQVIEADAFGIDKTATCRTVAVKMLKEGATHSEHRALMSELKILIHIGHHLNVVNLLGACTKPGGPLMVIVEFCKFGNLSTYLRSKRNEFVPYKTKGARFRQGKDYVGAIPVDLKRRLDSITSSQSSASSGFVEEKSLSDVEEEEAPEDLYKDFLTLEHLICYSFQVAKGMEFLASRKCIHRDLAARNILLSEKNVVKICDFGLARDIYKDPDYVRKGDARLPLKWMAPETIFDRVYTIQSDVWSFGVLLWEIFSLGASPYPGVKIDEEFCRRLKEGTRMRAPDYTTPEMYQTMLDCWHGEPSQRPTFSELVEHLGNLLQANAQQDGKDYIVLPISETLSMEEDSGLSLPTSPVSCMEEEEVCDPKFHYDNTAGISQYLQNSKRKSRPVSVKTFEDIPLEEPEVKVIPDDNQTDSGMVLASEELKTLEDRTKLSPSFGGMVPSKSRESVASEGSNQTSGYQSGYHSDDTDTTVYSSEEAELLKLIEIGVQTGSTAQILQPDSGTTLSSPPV

Molecule: C[C@@H](N)[C@H]1CC[C@H](C(=O)Nc2ccncc2)CC1 [Y-27632]
- osteogenic marker expression [1]: greatly reduced
- Staining for pMLC [1]: reduced in a dose-dependent manner
- expression of stemness markers (Sca1, CD29) [1]: strongly reduced

Molecule: Cc1ccc2c(c1)C(=O)C1(O)CCN(c3ccccc3)C1=N2 (centres unmarked) [blebbistatin]
- osteogenic marker expression [1]: greatly reduced
- Staining for pMLC [1]: reduced in a dose-dependent manner
- expression of stemness markers (Sca1, CD29) [1]: strongly reduced

Molecule: VEGF
- phosphorylated VEGFR-2 after 2 min [2]: present
- phosphorylated VEGFR-2 after 30 min [2]: no phosphorylation was detected
- ERK1/2 phosphorylation, VEGF present in the medium ([3]; PEA samples vs PEA sample without VEGF): did not show any difference
- ERK1/2 phosphorylation, VEGF coated on PEA ([3]; vs PEA without bound VEGF): higher level

B1: noggin: used as BMP-2 inhibitor to prevent activity (50 ng/ml) (protein)
chain: QHYLHIRPAPSDNLPLVDLIEHPDPIFDPKEKDLNETLLRSLLGGHYDPGFMATSPPEDRPGGGGGAAGGAEDLAELDQLLRQRPSGAMPSEIKGLEFSEGLAQGKKQRLSKKLRRKLQMWLWSQTFCPVLYAWNDLGSRFWPRYVKVGSCFSKRSCSVPEGMVCKPSKSVHLTVLRWRCQRRGGQRCGWIPIQYPIISECKCSC
- PEA driven FN/BMP-2 osteogenic differentiation (ALP) [4]: reduced

- BMP-2 released after 14 days [5]: < 10%
- amount of BMP-2 on the coated tube [6]: 15 ng
- surface density [7]: 100 ng/cm^2
B2: BMP-2 (R&D Systems, 355-BM or 355-BM/CF) (ligand, UniProt P12643 283-396, looked up)
chain: QAKHKQRKRLKSSCKRHPLYVDFSDVGWNDWIVAPPGYHAFYCHGECPFPLADHLNSTNHAIVQTLVNSVNSKIPKACCVPTELSAISMLYLDENEKVVLKNYQDMVVEGCGCR
